{"source": "patent US20240261254A1", "about": "“DIHYDROMYRICETIN NANOEMULSION FORMULATIONS AND METHODS FOR FORMING THEM” (Cheers Health, Inc., priority 2018, published 2024)", "origin": "cited, not measured here"}
{"compound": "O=C1c2c(O)cc(O)cc2O[C@H](c2cc(O)c(O)c(O)c2)[C@H]1O", "note": "[DHM, dihydromyricetin]", "values": [{"measurement": "BCS class", "setting": "low solubility and permeability", "result": "BCS class IV"}, {"measurement": "oral bioavailability", "setting": "reference [39]", "result": "less than 5%"}]}
